Measured values reported in patent publication US20190110990A1, “LIPOPROTEINS CONTAINING PLATINUM COMPLEXES FOR THE TREATMENT OF CANCER” (UNIVERSITE DE BOURGOGNE, priority 2016, published 2019).

Key:
[1] = tested on: SW480 colorectal cancer lines; test: Cell viability of SW480 cells by flow cytometry; format: cell-based; settings: SW480, 48 hours, final cisplatin concentration 25 μM
Experimental: The cell viability was then evaluated by flow cytometry.

[2] = tested on: human macrophages; test: ROS production by M2 macrophages (DHE labelling, flow cytometry); format: cell-based; settings: 2 hours, final cisplatin concentration 25 μM, basal (CTL) 8.2%
Experimental: After 7 days of culture in human M-CSF from Miltenyi, Biotec. (Macrophage Colony-Stimulating Factor) at 100 ng/ml, human macrophages were differentiated, from monocytes, into M2 alternative phenotype macrophages (protumoral). […] The production of reactive oxygen species (ROS, representative of an anti-tumour action) by the macrophages was then determined by flow cytometry after labelling with Dihydroethidium (DHE). […] Furthermore, the native HDLs, native LDLs and the LDL-Cis had no effect on ROS production by the macrophages.
The same protocol was repeated so as to compare the effect between the HDL-Cis and the oxidised LDL lipoproteins charged with cisplatin (LDLox+Cis) (see FIG. 2C). […] The oxidised LDLs were obtained by incubating native
LDLs (cholesterol, 1 mM) for 24 hours at 37° C. in the presence of copper sulphate (5 μM). After oxidation, the oxidised LDLs are dialysed in a PBS buffer.

N.N.[Cl][Pt][Cl] [non-vectorised cisplatin, Cis-diamine-dichloro-platinum (II)]
cancer cell mortality [1]: 41%
ROS production / macrophage activation [2]: 18.2%
